Measurements as given in patent US12540118B2, “Dendrene amide compound, bactericide and use thereof” (Jiangsu Flag Chemical Industry Co., Ltd., priority 2020, dated 2026).

Legend:
succinate dehydrogenase = target: T1, succinate dehydrogenase (Sus scrofa, UniProt A5GZW8+D0VWV4+Q007T0); test: Enzyme activity assay, succinate dehydrogenase (DCIP reduction); format: biochemical, porcine; settings: read-out: Inhibitors (10 μM, SQR)
T1 construct: isolated from porcine hearts; from tissue; host or cells: porcine heart
Protocol: The inhibitory activities of control agents and target compounds on succinate dehydrogenase are determined.
The enzyme used in this test example is succinate dehydrogenase, which is isolated from porcine hearts.
The test method comprises the following steps: The total volume of the system is 1.8 ml, and the system contained 100 mM Na2HPO4—NaH2PO4 buffer (pH=7.4), 0.3 mM EDTA, 20 mM sodium succinate, 53 μM DCIP (2,6-dichloroindophenol sodium), and 2 nM succinate dehydrogenase. Thermostatic waterbath at 23° C. and magnetic stirring at 600 rpm. The decrease in the light absorption of the substrate DCIP is monitored at a wavelength of 600 nm and experimental points in a linear range are collected. Control substrate consumption not more than 5% of the experimental points. The molar extinction coefficient of DCIP is 21 mM^−1 cm^−1. And calculating the reduction yield of the DCIP in the reaction time, fitting a linear slope, and deducting the baseline slope to obtain the initial reaction speed.

Erysiphe graminis = Erysiphe graminis potting method; format: in vivo; settings: Blumeria graminis, read-out: Erysiphe graminis control rating; for pest or weed control at 6.25 µg/mL: 6.25 mg/L; for pest or weed control at 25 µg/mL: 25 mg/L; for pest or weed control at 100 µg/mL: 100 mg/L
Protocol: The fungicidal activity of the control agents and target compounds are determined. The test and investigation method refers to SOP-SC-1116 Erysiphe graminis potting method in disinfectant rolls written by KANGZHUO and GUBAOGEN in “Standard operation specification for testing biological activity of pesticides”.

Sphaerotheca fuliginea = Sphaerotheca fuliginea potting method; format: in vivo; settings: Podosphaera fuliginea; 100 mg/L; read-out: Sphaerotheca fuliginea control rating
Protocol: The fungicidal activity of the control agents and target compounds are determined. The test and investigation method refers to SOP-SC-1101 sphaerotheca fuliginea potting method in disinfectant rolls written by KANGZHUO and GUBAOGEN in “Standard operation specification for testing biological activity of pesticides”.

T1 sequence (Q0QF01 43-664 partner): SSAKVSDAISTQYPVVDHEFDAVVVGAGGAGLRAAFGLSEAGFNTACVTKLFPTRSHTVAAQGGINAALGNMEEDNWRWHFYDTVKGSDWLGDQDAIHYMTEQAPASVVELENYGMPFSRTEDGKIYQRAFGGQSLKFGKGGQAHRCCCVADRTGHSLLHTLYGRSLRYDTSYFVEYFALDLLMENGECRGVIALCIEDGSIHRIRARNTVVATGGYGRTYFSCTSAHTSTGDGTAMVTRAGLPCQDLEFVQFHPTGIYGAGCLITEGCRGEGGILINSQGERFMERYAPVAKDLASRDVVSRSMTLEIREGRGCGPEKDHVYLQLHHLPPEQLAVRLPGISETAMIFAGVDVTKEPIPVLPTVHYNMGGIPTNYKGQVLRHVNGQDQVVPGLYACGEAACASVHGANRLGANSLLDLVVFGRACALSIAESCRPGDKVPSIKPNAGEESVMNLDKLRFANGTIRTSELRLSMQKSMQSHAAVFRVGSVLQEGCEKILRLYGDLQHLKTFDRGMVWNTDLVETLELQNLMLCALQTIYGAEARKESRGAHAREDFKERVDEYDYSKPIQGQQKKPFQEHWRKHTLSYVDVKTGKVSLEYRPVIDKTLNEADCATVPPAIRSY
T1 sequence (Q007T0 29-280): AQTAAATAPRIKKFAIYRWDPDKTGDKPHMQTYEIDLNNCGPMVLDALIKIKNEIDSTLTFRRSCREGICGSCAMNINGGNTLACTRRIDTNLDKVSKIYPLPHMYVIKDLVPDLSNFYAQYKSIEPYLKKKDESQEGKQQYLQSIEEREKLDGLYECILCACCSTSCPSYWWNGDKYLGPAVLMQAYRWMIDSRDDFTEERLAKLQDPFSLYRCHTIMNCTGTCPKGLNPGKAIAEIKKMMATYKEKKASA
T1 sequence (D0VWV4 30-169): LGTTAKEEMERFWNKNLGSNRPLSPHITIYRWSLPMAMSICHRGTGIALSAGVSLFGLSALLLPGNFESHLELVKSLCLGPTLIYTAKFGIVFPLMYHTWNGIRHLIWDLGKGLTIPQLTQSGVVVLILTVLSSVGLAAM
T1 sequence (A5GZW8 57-159 limits assumed): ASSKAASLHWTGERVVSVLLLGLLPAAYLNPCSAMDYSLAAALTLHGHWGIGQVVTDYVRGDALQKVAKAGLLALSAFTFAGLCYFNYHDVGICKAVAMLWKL

Structure (SMILES)	inhibition at 10 µM (succinate dehydrogenase)	pest or weed control at 6.25 µg/mL (Erysiphe graminis)	pest or weed control at 25 µg/mL (Erysiphe graminis)	pest or weed control at 100 µg/mL (Erysiphe graminis)	pest or weed control at 100 µg/mL (Sphaerotheca fuliginea)
C=C(CN(C(=O)c1c(C(F)F)nn(C)c1F)C1CC1)c1c(C)cccc1C [Compound 35]	> 90%	70 to 80%	80 to 100%	80 to 100%	80 to 100%
C=C(CN(C(=O)c1c(C(F)F)nn(C)c1F)C1CC1)c1c(C)cc(C)cc1C [Compound 36]	> 90%	80 to 100%	80 to 100%	80 to 100%	80 to 100%
C=C(CN(C(=O)c1c(C(F)F)nn(C)c1F)C1CC1)c1cc(C(C)C)ccc1C [Compound 37]	> 90%	70 to 80%	80 to 100%	80 to 100%	70 to 80%
C=C(CN(C(=O)c1c(C(F)F)nn(C)c1F)C1CC1)c1cc(C)ccc1C(C)C [Compound 38]	> 90%	70 to 80%	80 to 100%	80 to 100%	70 to 80%
C=C(CN(C(=O)c1c(C(F)F)nn(C)c1F)C1CC1)c1cc(C)ccc1C(C)(C)C [Compound 39]	> 90%			80 to 100%	70 to 80%
C=C(CN(C(=O)c1c(C(F)F)nn(C)c1F)C1CC1)c1cc(C(C)(C)C)ccc1C [Compound 40]	> 90%			80 to 100%	70 to 80%
C=C(CN(C(=O)c1c(C(F)F)nn(C)c1F)C1CC1)c1ccc(C(C)C)cc1C [Compound 41]	> 90%			80 to 100%	80 to 100%
C=C(CN(C(=O)c1c(C(F)F)nn(C)c1F)C1CC1)c1ccc(Cl)cc1F [Compound 42]	> 90%			80 to 100%	80 to 100%
C=C(CN(C(=O)c1c(C(F)F)nn(C)c1F)C1CC1)c1ccc(F)cc1Cl [Compound 43]	> 90%			80 to 100%	80 to 100%
C=C(CN(C(=O)c1c(C(F)F)nn(C)c1F)C1CC1)c1cc(Cl)ccc1F [Compound 44]	> 90%			80 to 100%	80 to 100%
C=C(CN(C(=O)c1c(C(F)F)nn(C)c1F)C1CC1)c1cc(C(F)(F)F)ccc1Cl [Compound 45]	> 90%			80 to 100%	80 to 100%
C=C(CN(C(=O)c1c(C(F)F)nn(C)c1F)C1CC1)c1cccc(C(F)(F)F)c1Cl [Compound 46]	> 90%			80 to 100%	80 to 100%
C=C(CN(C(=O)c1c(C(F)F)nn(C)c1F)C1CC1)c1ccc(C(F)(F)F)cc1Cl [Compound 47]	> 90%			80 to 100%	80 to 100%
C=C(CN(C(=O)c1c(C(F)F)nn(C)c1F)C1CC1)c1ccc(S(C)(=O)=O)cc1Cl [Compound 48]	> 90%			80 to 100%	80 to 100%
C=C(CN(C(=O)c1c(C(F)F)nn(C)c1F)C1CC1)c1cccc(S(C)(=O)=O)c1 [Compound 49]	> 90%			80 to 100%	80 to 100%
C=C(CN(C(=O)c1c(C(F)F)nn(C)c1F)C1CC1)c1ccccc1S(C)(=O)=O [Compound 50]	> 90%			80 to 100%	80 to 100%
C=C(CN(C(=O)c1c(C(F)F)nn(C)c1F)C1CC1)c1cc(S(C)(=O)=O)ccc1Cl [Compound 51]	> 90%			80 to 100%	80 to 100%
C=C(CN(C(=O)c1c(C(F)F)nn(C)c1F)C1CC1)c1ccc(S(=O)(=O)CC)cc1 [Compound 52]	> 90%			80 to 100%	80 to 100%
C=C(CN(C(=O)c1c(C(F)F)nn(C)c1F)C1CC1)c1cccc(S(=O)(=O)CC)c1 [Compound 53]	> 90%			80 to 100%	70 to 80%
C=C(c1cc(F)cc(F)c1)C(C)N(C(=O)c1c(C(F)F)nn(C)c1F)C1CC1 (centres unmarked) [Compound 63]	> 90%			80 to 100%	80 to 100%
C=C(c1ccc(F)cc1F)C(C)N(C(=O)c1c(C(F)F)nn(C)c1F)C1CC1 (centres unmarked) [Compound 64]	> 90%			80 to 100%	80 to 100%
C=C(c1ccccc1C(F)(F)F)C(C)N(C(=O)c1c(C(F)F)nn(C)c1F)C1CC1 (centres unmarked) [Compound 71]	> 90%			80 to 100%	80 to 100%
C=C(c1c(Cl)cc(Cl)cc1Cl)C(C)N(C(=O)c1c(C(F)F)nn(C)c1F)C1CC1 (centres unmarked) [Compound 74]	> 90%			80 to 100%	80 to 100%

More lines, main results first:

inhibition at 10 µM (succinate dehydrogenase)	Structure (SMILES)	pest or weed control at 6.25 µg/mL (Erysiphe graminis)	pest or weed control at 25 µg/mL (Erysiphe graminis)	pest or weed control at 100 µg/mL (Erysiphe graminis)	pest or weed control at 100 µg/mL (Sphaerotheca fuliginea)
> 90%	C=C(c1cccc(F)c1)C(C)N(C(=O)c1c(C(F)F)nn(C)c1F)C1CC1 (centres unmarked) [Compound 56]			80 to 100%	80 to 100%
> 90%	C=C(c1cccc(Cl)c1)C(C)N(C(=O)c1c(C(F)F)nn(C)c1F)C1CC1 (centres unmarked) [Compound 57]			80 to 100%	80 to 100%
> 90%	C=C(c1ccccc1F)C(C)N(C(=O)c1c(C(F)F)nn(C)c1F)C1CC1 (centres unmarked) [Compound 58]			80 to 100%	80 to 100%
> 90%	C=C(c1ccc(Cl)cc1)C(C)N(C(=O)c1c(C(F)F)nn(C)c1F)C1CC1 (centres unmarked) [Compound 59]			80 to 100%	80 to 100%
> 90%	C=C(c1ccc(C)cc1)C(C)N(C(=O)c1c(C(F)F)nn(C)c1F)C1CC1 (centres unmarked) [Compound 60]			80 to 100%	80 to 100%
> 90%	C=C(c1ccc(OC)cc1)C(C)N(C(=O)c1c(C(F)F)nn(C)c1F)C1CC1 (centres unmarked) [Compound 61]			80 to 100%	80 to 100%
> 90%	C=C(c1ccc(F)c(F)c1)C(C)N(C(=O)c1c(C(F)F)nn(C)c1F)C1CC1 (centres unmarked) [Compound 62]			80 to 100%	80 to 100%
> 90%	C=C(c1ccc(Cl)c(Cl)c1)C(C)N(C(=O)c1c(C(F)F)nn(C)c1F)C1CC1 (centres unmarked) [Compound 65]			80 to 100%	80 to 100%
> 90%	C=C(c1ccc(Br)cc1)C(C)N(C(=O)c1c(C(F)F)nn(C)c1F)C1CC1 (centres unmarked) [Compound 66]			80 to 100%	80 to 100%
> 90%	C=C(c1ccc(Cl)cc1Cl)C(C)N(C(=O)c1c(C(F)F)nn(C)c1F)C1CC1 (centres unmarked) [Compound 67]			80 to 100%	80 to 100%
> 90%	C=C(c1ccc(F)cc1)C(C)N(C(=O)c1c(C(F)F)nn(C)c1F)C1CC1 (centres unmarked) [Compound 68]			80 to 100%	80 to 100%
> 90%	C=C(c1cccc(OC)c1)C(C)N(C(=O)c1c(C(F)F)nn(C)c1F)C1CC1 (centres unmarked) [Compound 69]			80 to 100%	80 to 100%
> 90%	C=C(c1cccc(C)c1)C(C)N(C(=O)c1c(C(F)F)nn(C)c1F)C1CC1 (centres unmarked) [Compound 70]			80 to 100%	80 to 100%
> 90%	C=C(c1ccccc1Cl)C(C)N(C(=O)c1c(C(F)F)nn(C)c1F)C1CC1 (centres unmarked) [Compound 72]			80 to 100%	80 to 100%
> 90%	C=C(c1c(Cl)cccc1Cl)C(C)N(C(=O)c1c(C(F)F)nn(C)c1F)C1CC1 (centres unmarked) [Compound 73]			80 to 100%	80 to 100%
> 90%	C=C(c1cccc(Cl)c1Cl)C(C)N(C(=O)c1c(C(F)F)nn(C)c1F)C1CC1 (centres unmarked) [Compound 75]			80 to 100%	80 to 100%
> 90%	C=C(c1cc(Cl)ccc1Cl)C(C)N(C(=O)c1c(C(F)F)nn(C)c1F)C1CC1 (centres unmarked) [Compound 76]			80 to 100%	80 to 100%
> 90%	C=C(c1cc(F)ccc1F)C(C)N(C(=O)c1c(C(F)F)nn(C)c1F)C1CC1 (centres unmarked) [Compound 77]			80 to 100%	80 to 100%
